Where “and” joins values, the source holds several entries; their conditions need not be identical. Equal values may be shown once.
How the values were obtained:
[1] = prior-art tadalafil of U.S. Pat. No. 6,821,975; cited from earlier work
[2] = Particle size of tadalafil by Malvern laser diffraction (Mastersizer S); assay type: physicochemical
Description: Measurement and characterization of particle size distributions is known in the art. It is possible to compare samples of particulate tadalafil on the basis of individual points on a cumulative particle size distribution curve. The measurements are represented as d(0.X)=Y (where X and Y are Arabic numerals), each “d” describing an individual point on a cumulative PSD curve. The number “X” represents the percentage (number, volume, or weight) of particles in the population having a nominal size up to and including “Y”. Thus, d(0.9)=250μ is characteristic of a PSD in which 90% (number, volume, or weight) of the particles in a population have a nominal size of about 250μ or less (at least some particles having a nominal dimension of 250μ) and so forth. When PSD is determined by the well-know laser-diffraction method described herein, the d(0.X) measurement depicts a volume average. The particle size of tadalafil described herein was measured by Malvern Laser Diffraction using a Mastersizer S instrument. The measuring instrument was equipped with a small cell dispersion unit MS1 with a digital dispersion unit controller. The measurement was performed by using range lens 300RF (working range 0.05-900 mcm), beam length: 2.40 mm, presentation 3$$D (Fraunhofer), number of sweeps 4000, and speed rate 2300±10 rpm. The dilution medium was 0.1% w/v Span 80 in a saturated solution of tadalafil in cyclohexane. The measurement began after 10 seconds of recirculation, after the powder was added directly into the measurement cell filled with the dilution medium. According to the accepted rules of Good Manufacturing Procedures, a sample of tadalafil was measured after a successful blank measurement (% obscuration NMT 0.1%) was performed.

In the case of `CN1CC(=O)N2[C@H](c3ccc4c(c3)OCO4)c3[nH]c4ccccc4c3C[C@@H]2C1=O` [tadalafil, (6R-trans)-6-(1,3-benzodioxol-5-yl)-2,3,6,7,12,12a-hexahydro-2-methyl-pyrazino[1′,2′:1,6]pyrido[3,4-b]indole-1,4-dione], the “particle size of 90% of the particles” value [1] is given as “less than 40 microns”, the “particle size, d(0.9)” value ([2]; Example 1, final dry material after industrial-scale crystallization from acetone/water with heating/cooling cycles) is given as 60-500 microns and the “particle size, d(0.9)” value ([2]; Example 2, final dry material after crystallization from acetone/water with heating/cooling cycles) is given as > 60 microns. For the same compound, the “particle size, d(0.9)” value ([2]; Example 3, after milling with micronizer, 50 mm, 4.0 bar feed air and 3.0 bar milling air) was “about 228.7 microns”, the “particle size, d(0.9)” value ([2]; Example 4, after milling with micronizer, 50 mm, 2.0 bar feed air and 1.0 bar milling air) was “about 105.8 microns” and the “particle size, d(0.9)” value ([2]; Example 5, after milling with Pin-Mill, 9.6 Kg/hr feed rate and 12,000 rpm milling speed) was “about 52.4 microns”. The “particle size, d(0.9)” value ([2]; Example 6, after milling with Pin-Mill, 9.6 Kg/hr feed rate and 4500 rpm milling speed) was “about 202.7 microns” and the “particle size, d(0.9)” value ([2]; starting sample before milling (Examples 3-6)) was 584 microns and 538.6 microns and 553.5 microns.

Reference: patent publication US7417044B2, “Tadalafil having a large particle size and a process for preparation thereof” (Teva Pharmaceutical Industries Ltd., priority 2005, dated 2008)
